Test results from publication PMC9516332 (Frontiers in Oncology, 2022).

Experiments:
[1] = molecular target: T1, FGFR2 (Homo sapiens, UniProt P21802); assay: Biochemical kinase assay (MSA), IC50
T1 construct: purchased Carna Biosciences (only by web pointer)

[2] = test system: FGFR-altered cell lines; assay: Cell viability assay, FGFR-altered versus FGFR wild-type cell lines; assay type: cell-based; conditions: MANOVA
[3] = test system: ERBB2-amplified cell lines; assay: Cell viability assay, ERBB2-amplified versus non-amplified cell lines; assay type: cell-based; conditions: MANOVA
Protocol: The effect of compounds on cell viability was determined by measuring intracellular ATP content as an indirect readout of cell number ([15]). […] A vehicle-treated control (0.4% (v/v) DMSO) was included in quadruplicate on the same assay plate to determine maximum cell growth. The final DMSO concentration was 0.4% (v/v) in all wells. After incubation for another 72 hours, ATP content in each well was measured as described previously. […] When the cell doubling deviated > 2-fold from the historic doubling as determined in multiple independent experiments, the experiment was invalidated and repeated. […] IC50 values of kinase inhibitors were calculated by fitting a 4-parameter logistic curve to the percentage viability values using IDBS XLfit5 (IDBS, Guildford, United Kingdom). […] . For some compounds, biphasic curves were measured in one or more cell lines, indicating a dual mechanism of action in these cell lines ([29]). […] For all bioinformatic analyses, ^10log(IC50 [nmol/L]) values were used.
Cell lines were classified as having an alteration in a specific cancer gene if at least one allele was altered by point mutation, insertion, deletion, fusion, or amplification. The mutation, fusion, and amplification status of the cell lines was retrieved from the COSMIC cell lines project (version 80) ([23]), Cancer Cell Line Encyclopedia (CCLE), DepMap (version 22Q1) ([16]), and Cellosaurus ([30]) databases. In order to ensure that genomic alterations included in subsequent analyses were relevant to cancer growth and drug response, mutations were only included when they were either reported as a hotspot mutation in Cancer Hotspots ([31]), described as oncogenic and gain-of-function in OncoKB or JAX CKB, or described as pathogenic in the literature. […] J82 was therefore annotated as FGFR3 wild-type.
All statistical analyses were performed in R (version 4.1.2), unless otherwise indicated. A two-sided Mann-Whitney test was performed for two-group comparisons. […] . Multivariate analysis of variance (MANOVA) was performed for multi-group comparison.

[4] = molecular target: panel of 255 wild-type kinases (Homo sapiens, UniProt Q15349); conditions: kinase RSK3; 1 µmol/L single concentration; ref DOI: 10.1158/1535-7163.MCT-18-0877; cited from earlier work
[5] = molecular target: panel of 255 wild-type kinases (Homo sapiens, UniProt Q9H1R3); conditions: kinase skMLCK; 1 µmol/L single concentration; ref DOI: 10.1158/1535-7163.MCT-18-0877; cited from earlier work
[6] = molecular target: panel of 255 wild-type kinases (Homo sapiens, UniProt P19525); conditions: kinase PKR; 1 µmol/L single concentration; ref DOI: 10.1158/1535-7163.MCT-18-0877; cited from earlier work
[7] = molecular target: panel of 255 wild-type kinases (Homo sapiens, UniProt Q13131); conditions: AMPKα1/β1/γ1 kinase assay; 1 µmol/L single concentration; ref DOI: 10.1158/1535-7163.MCT-18-0877; cited from earlier work
[8] = molecular target: panel of 255 wild-type kinases (Homo sapiens, UniProt Q9P0L2); conditions: MARK1; 1 µmol/L single concentration; ref DOI: 10.1158/1535-7163.MCT-18-0877; cited from earlier work
[9] = molecular target: T2, panel of 255 wild-type kinases (Homo sapiens, UniProt Q9BZL6); conditions: kinase PKD2; 1 µmol/L single concentration; ref DOI: 10.1158/1535-7163.MCT-18-0877; cited from earlier work
T2 sequence (Q9BZL6 1-878): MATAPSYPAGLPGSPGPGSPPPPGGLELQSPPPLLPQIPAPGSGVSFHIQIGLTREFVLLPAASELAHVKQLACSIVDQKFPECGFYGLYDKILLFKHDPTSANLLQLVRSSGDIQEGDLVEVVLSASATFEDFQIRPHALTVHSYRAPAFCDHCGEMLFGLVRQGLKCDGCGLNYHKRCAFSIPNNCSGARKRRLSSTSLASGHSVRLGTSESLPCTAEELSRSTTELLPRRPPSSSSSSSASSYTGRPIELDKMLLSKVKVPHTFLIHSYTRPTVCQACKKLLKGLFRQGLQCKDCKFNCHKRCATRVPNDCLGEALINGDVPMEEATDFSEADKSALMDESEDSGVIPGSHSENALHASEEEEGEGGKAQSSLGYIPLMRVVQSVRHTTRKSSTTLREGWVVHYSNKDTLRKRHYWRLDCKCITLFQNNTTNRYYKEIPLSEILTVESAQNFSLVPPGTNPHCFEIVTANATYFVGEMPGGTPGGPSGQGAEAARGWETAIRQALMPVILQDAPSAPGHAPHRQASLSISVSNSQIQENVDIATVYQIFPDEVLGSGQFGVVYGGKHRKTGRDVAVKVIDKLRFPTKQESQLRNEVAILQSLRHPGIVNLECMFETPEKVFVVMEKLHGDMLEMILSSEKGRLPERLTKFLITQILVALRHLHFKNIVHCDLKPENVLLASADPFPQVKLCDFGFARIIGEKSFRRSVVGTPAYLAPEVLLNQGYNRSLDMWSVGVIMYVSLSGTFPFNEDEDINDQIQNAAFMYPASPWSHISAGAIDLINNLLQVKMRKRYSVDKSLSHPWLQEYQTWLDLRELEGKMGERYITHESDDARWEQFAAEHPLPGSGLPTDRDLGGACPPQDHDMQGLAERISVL

[10] = molecular target: panel of 255 wild-type kinases (Homo sapiens, UniProt Q9UK32); conditions: kinase RSK4; 1 µmol/L single concentration; ref DOI: 10.1158/1535-7163.MCT-18-0877; cited from earlier work
[11] = molecular target: panel of 255 wild-type kinases (Homo sapiens, UniProt P68400); conditions: kinase CK2α1/β; 1 µmol/L single concentration; ref DOI: 10.1158/1535-7163.MCT-18-0877; cited from earlier work
[12] = molecular target: panel of 255 wild-type kinases (Homo sapiens, UniProt Q9Y6M4); conditions: kinase CK1γ3; 1 µmol/L single concentration; ref DOI: 10.1158/1535-7163.MCT-18-0877; cited from earlier work
[13] = test system: EGFR-mutant cell lines; assay: Cell viability assay, EGFR-mutant versus EGFR wild-type cell lines; assay type: cell-based; conditions: MANOVA; for lower IC50 (higher potency) in EGFR-mutant compared to EGFR wild-type cell lines: on average

Row | IC50 [1] | SMILES | activity in FGFR-altered versus wild-type cell lines [2] | preferential targeting of ERBB2-amplified versus non-amplified cell lines [3] | %-inhibition at 1 µmol/L, RSK3 [4] | %-inhibition at 1 µmol/L, skMLCK [5] | %-inhibition at 1 µmol/L, PKR [6] | %-inhibition AMPKα1/β1/γ1 [7] | %-inhibition, MARK1 [8] | %-inhibition at 1 µmol/L, PKD2 [9] | %-inhibition at 1 µmol/L, RSK4 [10] | %-inhibition at 1 µmol/L, CK2α1/β [11] | %-inhibition at 1 µmol/L, CK1γ3 [12] | preferential targeting of EGFR-mutant cell lines [13] | lower IC50 (higher potency) in EGFR-mutant compared to EGFR wild-type cell lines [13]
1 | 0.016 µM | COc1ccc(CN2C3CC2CN(c2ccc(-c4cc(OCC(C)(C)O)cn5ncc(C#N)c45)cn2)C3)cn1 [selpercatinib] | around ten times more active |  |  |  |  |  |  |  |  |  |  |  | 
2 |  | CC#CC(=O)N1CCC[C@H]1c1nc(-c2ccc(C(=O)Nc3ccccn3)cc2)c2c(N)nccn12 [acalabrutinib] |  | 44 fold | 1.13% | -17% | 7% | -5% | -3.49% | -10% | 4.21% | 5.34% | -15% | did not significantly target | 
3 | 0.027 µM | CO[C@]1(C(=O)N[C@@H](C)c2ccc(-n3cc(F)cn3)nc2)CC[C@H](c2nc(C)cc(Nc3cc(C)[nH]n3)n2)CC1 [pralsetinib] | around ten times more active |  |  |  |  |  |  |  |  |  |  |  | 
4 |  | C=CC(=O)N1CCC([C@@H]2CCNc3c(C(N)=O)c(-c4ccc(Oc5ccccc5)cc4)nn32)CC1 [zanubrutinib] |  | 45 fold |  |  |  |  |  |  |  |  |  |  | 8 fold
5 |  | C=CC(=O)N1CCC[C@@H](n2nc(-c3ccc(Oc4ccccc4)cc3)c3c(N)ncnc32)C1 [ibrutinib] |  | 254 fold | 9% | -17% | 5.63% |  | 2.46% | -3.2% | 5.52% | -11% | 4% |  | 28 fold
